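Each compound was tested at five concentrations against cells in 96-well plates for 48 hours. Here, GI50 denotes the concentration required for 50% inhibition of growth.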 Active and inactive are the calls of the source. Cut-off read from the data, not from the text of the source: active = GI50 up to about 1.1 µM and inactive = higher.
How the values were obtained:
Assay in all cases: NCI tumour cell line growth inhibition, 48 h
A498 = system: A498
A549 = system: A549
EKVX = system: EKVX
HCT-116 = system: HCT-116
HL-60 = system: HL-60
K562 = system: K562
MCF7 = system: MCF7
MOLT-4 = system: MOLT-4
Malme-3M = system: Malme-3M
NCI-H226 = system: NCI-H226
NCI-H23 = system: NCI-H23
NCI/ADR-RES = system: NCI/ADR-RES
OVCAR-4 = system: OVCAR-4
PC-3 = system: PC-3
RPMI-8226 = system: RPMI-8226
SF-268 = system: SF-268
SK-MEL-28 = system: SK-MEL-28
SK-OV-3 = system: SK-OV-3
SN12C = system: SN12C
T47D = system: T47D

SMILES | GI50 (A498) | GI50 (A549) | GI50 (EKVX) | GI50 (HCT-116) | GI50 (HL-60) | GI50 (K562) | GI50 (MCF7) | GI50 (MOLT-4) | GI50 (Malme-3M) | GI50 (NCI-H226) | GI50 (NCI-H23) | GI50 (NCI/ADR-RES) | GI50 (OVCAR-4) | GI50 (PC-3) | GI50 (RPMI-8226) | GI50 (SF-268) | GI50 (SK-MEL-28) | GI50 (SK-OV-3) | GI50 (SN12C) | GI50 (T47D)
CC(C)(C)OC(=O)CCC1NC(=O)[C@@H]2Cc3c([nH]c4ccccc34)C(C3CCCCC3)N2C1=O (stereo not given in full) | 60.5 µM (inactive) | 26.4 µM (inactive) | 41.7 µM (inactive) | 27 µM (inactive) | 16.6 µM (inactive) | 32.4 µM (inactive) | 26.7 µM (inactive) | 12.4 µM (inactive) | 29.1 µM (inactive) | 36.2 µM (inactive) | 39.6 µM (inactive) | 48.8 µM (inactive) | 28.8 µM (inactive) | 18.8 µM (inactive) | 16.4 µM (inactive) | 31.4 µM (inactive) | 68.9 µM (inactive) | 44.6 µM (inactive) | 22.4 µM (inactive) | 27.9 µM (inactive)
Nc1ccc2nc3n(c(=O)c2c1)CCCCC3 | > 100 µM (inactive) | > 100 µM (inactive) | > 100 µM (inactive) | > 100 µM (inactive) | > 100 µM (inactive) | > 100 µM (inactive) | > 100 µM (inactive) | > 100 µM (inactive) | > 100 µM (inactive) | > 100 µM (inactive) | > 100 µM (inactive) | > 100 µM (inactive) | > 100 µM (inactive) | > 100 µM (inactive) | > 100 µM (inactive) | > 100 µM (inactive) | > 100 µM (inactive) | > 100 µM (inactive) | > 100 µM (inactive) | > 100 µM (inactive)
O=c1c2cc3c(cc2[nH]c2ncccc12)OCO3 | > 10 µM (inactive) | > 10 µM (inactive) | > 10 µM (inactive) | > 10 µM (inactive) | > 10 µM (inactive) | > 10 µM (inactive) | > 10 µM (inactive) | > 10 µM (inactive) | > 10 µM (inactive) | > 10 µM (inactive) | > 10 µM (inactive) | > 10 µM (inactive) | > 10 µM (inactive) | > 10 µM (inactive) | > 10 µM (inactive) | > 10 µM (inactive) | > 10 µM (inactive) | > 10 µM (inactive) | > 10 µM (inactive) | > 10 µM (inactive)
Cc1cccc(NC(=S)N/N=C(/c2ccccc2)c2ccccn2)c1 | 1.98 µM (inactive) | 0.22 µM (active) | 0.0885 µM (active) | < 0.0131 µM (active) | < 0.0137 µM (active) | < 0.0135 µM (active) | < 0.0172 µM (active) | < 0.0149 µM (active) | 0.174 µM (active) | 0.207 µM (active) | < 0.0282 µM (active) | 0.138 µM (active) | 0.368 µM (active) | < 0.0143 µM (active) | < 0.0182 µM (active) | 0.0863 µM (active) | 1.89 µM (inactive) | 0.038 µM (active) | 0.359 µM (active) | 0.0579 µM (active)
COc1c(O)cc2oc(-c3ccc(O)cc3)cc(=O)c2c1O [HISPIDULIN] | 2.57 µM (inactive) | 35.5 µM (inactive) | 8.07 µM (inactive) | 35.3 µM (inactive) | 24.5 µM (inactive) | 34.8 µM (inactive) | 52 µM (inactive) | 25.4 µM (inactive) | 74.8 µM (inactive) | 77.6 µM (inactive) | 42.2 µM (inactive) | 36.1 µM (inactive) | 35.8 µM (inactive) | 34.2 µM (inactive) | 46.3 µM (inactive) | 46.6 µM (inactive) | 45.7 µM (inactive) | 48.2 µM (inactive) | 39.4 µM (inactive) | 33.4 µM (inactive)

Source: ChEMBL document CHEMBL1201862, “PubChem BioAssay data set” (2004)
